{
  "source": "patent US7462480B2",
  "about": "“Stimulation of microbial dechlorination of polychorinated biphenyls with halogenated ethenes” (University of Maryland Biotechnology Institute, priority 2002, dated 2008)",
  "key": {"O-17": {"tested_on": "O-17", "assay": "anaerobic enrichment culture of PCB dechlorinating bacterium O-17 with tetrachloroethene", "format": "cell-based, bacterium ortho-dechlorinating strain O-17", "protocol": "(§1) Culture Conditions. A sterile media was prepared composed of at least one of the following components in grams per liter (final concentration) of demineralized water: Na2CO3, 3.0; Na2HPO4, 0.6; NH4Cl, 0.5; cysteine-HCl.H2O, 0.25; Na2S.9H2O, 0.25; resazurin, 0.001. In addition, 1% (v/v) each of vitamin and trace element solutions was added. An anaerobic enrichment culture comprising either O-17 (GenBank Accession #: AF058005; Appl Environ Microbiol. 1998 September; 64(9):3359-67)or DF-1 (GenBank Accession #: AF393781; Appl Environ Microbiol. 2002 February; 68(2):807-12)capable of dechlorination of 2,3,5,6-tetrachlorobiphenyl (2,3,5,6-CB) in the absence of sediment was used in this study. Cultures were incubated at 30° C. in the dark. All gases were passed through a column of reduced copper turnings at 350° C. to remove traces of O2. Media (8 ml) were dispersed into culture tubes (16×160 mm) and sealed with Teflon®-lined butyl stoppers (The West Company, Lionville, Pa.) secured by aluminum crimp collars (Bellco Glass, Inc., Vineland, N.J.).\n(§2) Congener 2,3,5,6-tetrachlorobiphenyl (2,3,5,6-CB) was also solubilized in tetrachloroethene and added to a fresh anaerobic enrichment culture comprising either O-17 or DF-1 and was incubated under strict anaerobic conditions at 30° C. in the dark. […]"}, "DF-1": {"tested_on": "DF-1", "assay": "anaerobic enrichment culture of PCB dechlorinating bacterium DF-1 with tetrachloroethene", "format": "cell-based, bacterium double flank-dechlorinating strain DF-1", "protocol": "as §1, §2"}, "[1]": {"conditions": "partially soluble in water; cited from earlier work"}, "[2]": {"conditions": "2,3,5,6-CB solubilized in tetrachloroethene, strict anaerobic conditions, 30° C. in the dark"}, "[3]": {"conditions": "PCBs and tetrachloroethene combined, simultaneously dechlorinated"}},
  "data": [
    {"smiles": "ClC(Cl)=C(Cl)Cl", "note": "[tetrachloroethene]", "values": [
      {"measurement": "population growth density relative to culture containing 2,3,5,6-CB alone", "setting": "O-17; [2]", "result": "increased population growth density"},
      {"measurement": "effect on PCB dechlorination", "setting": "O-17; [3]", "result": "did not inhibit or significantly delay PCB dechlorination"},
      {"measurement": "population growth density relative to culture containing 2,3,5,6-CB alone", "setting": "DF-1; [2]", "result": "increased population growth density"},
      {"measurement": "effect on PCB dechlorination", "setting": "DF-1; [3]", "result": "did not inhibit or significantly delay PCB dechlorination"},
      {"measurement": "solubility in water", "setting": "[1]", "result": "up to 1 mM"}
    ]}
  ]
}
